Assay results reported in the NIST ThermoML archive (doi:10.1016/j.jct.2012.05.003).

Experiments:
[1] = Molar enthalpy of transition or fusion; details: Crystal; Adiabatic calorimetry
[2] = molar heat capacity at saturation pressure; details: Vacuum adiabatic calorimetry

O=C1c2ccccc2-c2ccccc21 [9(9H)-fluorenone]
Details	Molar enthalpy of transition or fusion [kcal/mol]
[1]	3.9101

molar heat capacity [J/K/mol], [2]
Details	Crystal	Liquid
4.566 K	0.46	–
5 K	0.6	–
5.528 K	0.77	–
6.434 K	1.22	–
7.474 K	1.88	–
8.581 K	2.71	–
9.685 K	3.71	–
10 K	4.02	–
10.85 K	4.87	–
12.11 K	6.26	–
13.44 K	7.86	–
14.97 K	9.678	–
16.65 K	11.82	–
18.49 K	14.15	–
20 K	16.01	–
20.45 K	16.55	–
22.62 K	19.26	–
25.08 K	22.19	–
27.79 K	25.34	–
30 K	27.82	–
30.74 K	28.64	–
33.98 K	32.05	–
37.55 K	35.61	–
40 K	37.94	–
41.59 K	39.4	–
46.13 K	43.45	–
50 K	46.83	–
51.2 K	47.85	–
56.87 K	52.2	–
56.9 K	52.18	–
60 K	54.38	–
62.55 K	56.09	–
62.62 K	56.16	–
68.7 K	60.3	–
70 K	61.14	–
72.85 K	62.96	–
75.63 K	64.74	–
80 K	67.46	–
83.16 K	69.38	–
84.2 K	70.02	–
90 K	73.43	–
91.53 K	74.32	–
92.55 K	74.86	–
100 K	79.14	–
100.6 K	79.46	–
101.73 K	80.16	–
109.97 K	84.81	–
119.46 K	90.1	–
120 K	90.41	–
129.35 K	95.77	–
139.36 K	101.53	–
140 K	101.91	–
149.34 K	107.42	–
159.36 K	113.33	–
160 K	113.73	–
169.39 K	119.4	–
179.42 K	125.52	–
180 K	125.91	–
189.44 K	131.93	–
199.45 K	138.28	–
200 K	138.65	–
209.47 K	144.93	–
219.38 K	151.48	–
220 K	151.91	–
229.4 K	158.17	–
239.49 K	164.92	–
240 K	165.3	–
249.56 K	172.03	–
259.56 K	178.91	–
260 K	179.23	–
269.56 K	185.84	–
279.57 K	192.92	–
280 K	193.1	–
289.32 K	199.64	–
296.08 K	204.14	–
298.15 K	205.82	–
299.29 K	206.68	–
300 K	207.11	–
305.5 K	210.87	–
308.47 K	212.74	–
309.21 K	213.37	–
315.7 K	218.21	–
316.59 K	218.89	–
320 K	221.01	–
324.75 K	224.49	–
325.3 K	224.82	–
332.95 K	230.04	–
335.34 K	231.75	–
340 K	235.18	282.8
340.05 K	–	282.82
341.17 K	235.83	–
345.34 K	238.85	–
349.26 K	–	287
349.41 K	242.52	–
356.52 K	247.86	290.4
359.51 K	–	291.82
360 K	–	291.97
363.97 K	–	293.73
364.32 K	–	293.78
367.03 K	–	295.01
373.93 K	–	298.26
380 K	–	301.01
386.08 K	–	303.75
398.35 K	–	309.31
400 K	–	310.04
410.74 K	–	314.78
420 K	–	318.92
423.26 K	–	320.37
435.5 K	–	325.69
440 K	–	327.65
447.89 K	–	331.01
460 K	–	336.07
460.14 K	–	336.12
472.54 K	–	341.25
477.16 K	–	343.14
480 K	–	344.22
487.83 K	–	347.32
490.73 K	–	348.64
499.62 K	–	352.16
500 K	–	352.28
505.44 K	–	354.68
509.99 K	–	356.21
518.82 K	–	359.99
519.26 K	–	360.18
520 K	–	360.47
